Source: US11684611B2, “Compounds for treating diseases associated with a mitochondrial dysfunction” (Amabiotics, priority 2016, dated 2023)

System: rat primary dopaminergic neurons (TH positive neurons)
Experiment: Neuroprotective effect on rat primary cultures of dopaminergic neurons injured by 6-OHDA (count of TH positive neurons)
Type: cell-based
Details: for survival of primary dopaminergic neuron culture (TH positive neurons), % of control: p<0.05 vs 6-OHDA
Procedure: Accordingly, this study investigates the effect of queuine on rat primary mesencephalic cultures injured by exposure to 6-OHDA.
Rat dopaminergic neurons are cultured as described by Schinelli et al. (1988) J. Neurochem. 50:1900-1907.
Briefly, pregnant female rats (Wistar rats; Janvier) at 15 days of gestation are killed by cervical dislocation and the fetuses are removed from the uterus. The embryonic midbrains is removed and placed in ice-cold Leibovitz medium (L15; PanBiotech) containing 2% of Penicillin-Streptomycin (PS; PanBiotech) and 1% of bovine serum albumin (BSA; PanBiotech). Only the ventral portions of the mesencephalic flexure is used for cell preparations as this is the region of the developing brain rich in dopaminergic neurons. The midbrain is dissociated by trypsinisation for 20 min at 37° C. (Trypsin EDTA 1X; PanBiotech). The reaction is stopped by the addition of Dulbecco's modified Eagle's medium (DMEM; PanBiotech) containing DNAse I grade II (0.1 mg/mL; Roche Diagnostic) and 10% of fetal calf serum (FCS; Invitrogen). The cells are mechanically dissociated by 3 passages through a 10 ml pipette. The dissociated cells are then centrifuged at 180×g for 10 min at 4° C. on a layer of BSA (3.5%) in L15 medium. The supernatant is discarded and the pelleted cells are re-suspended in a culture medium consisting of Neurobasal (Invitrogen, Ref: 21103, Batch: 1725098) supplemented with B27 (2%; Invitrogen, ref: 17504), L-glutamine (2 mM; PanBiotech, Ref: P04-80100) and 2% of PS, 10 ng/mL of BDNF (PanBiotech, Ref: CB-1115002) and 1 ng/mL of GDNF (PanBiotech, Ref: CB-1116001). Viable cells are counted in a Neubauer cytometer using the trypan blue exclusion test. The cells are then seeded at a density of 40 000 cells/well in 96 well-plates pre-coated with poly-D-lysine (Greiner) and are cultured at 37° C. in a humidified air (95%)/CO2 (5%) atmosphere. Half of the medium is changed every 2 days with fresh medium. In these conditions, after 5 days of culture, astrocytes are present in the culture and release growth factor allowing neurons differentiation. Five to six percent of the neuronal cell population are dopaminergic neurons.
Each condition is replicated in six wells of the 96-wells culture plates. 1.4. End Point Evaluation: Determination of the Total Number of Dopaminergic Neurons
At the end of the incubation time, the cells are fixed by a solution of 4% paraformaldehyde for 20 min at room temperature. The cells are then permeabilized and non-specific sites are blocked with a solution of phosphate buffered saline (PBS; PanBiotech) containing 0.1% of saponin (Sigma) and 1% fetal calf serum (FCS) for 15 min at room temperature. Eventually, the cells are incubated with a monoclonal anti-Tyrosine Hydroxylase (TH) mouse antibody (Sigma) in PBS containing 1% FCS and 0.1% saponin, for 2 h at room temperature. The anti-TH antibody targets dopaminergic neurons.
The nuclei of the cells is stained by a fluorescent marker (Hoechst solution, SIGMA) in the same solution.
For each condition, 20 pictures per well are taken using InCell Analyzer™ 2000 (GE Healthcare) with 20× magnification. Images of each culture well are also taken.
The analysis of the cell bodies of TH positive neurons are performed using Developer software (GE healthcare). A total of 6 data per experimental condition is provided. All values are expressed as mean±s.e. mean. For statistical analyses ANOVA is performed followed by Dunnett's test.

## NCCc1cc(O)c(O)cc1O [6-OHDA, 6-hydroxydopamine, reference compound]
6-OHDA alone at 20 μM for 48 h, FIG. 1 and FIG. 2
  effect on number of TH positive neurons: large and significant decrease

## Nc1nc2[nH]cc(CN[C@H]3C=C[C@H](O)[C@@H]3O)c2c(=O)[nH]1 [queuine, 7-(3,4-trans-4,5-cis-dihydroxy-1-cyclopenten-3-ylaminomethyl)-7-deazaguanine]
Preliminary results, rat primary mesencephalic cultures
  effect on 6-OHDA-induced neurotoxicity: neuroprotective effect
Queuine 0.3 μM added 6 days before 6-OHDA intoxication (20 μM, 48 h), FIG. 2
  survival of primary dopaminergic neuron culture (TH positive neurons), % of control: 80.47 % of the control
Queuine 1 μM added 1 day (24 hours) before 6-OHDA intoxication (20 μM, 48 h), FIG. 1
  survival of primary dopaminergic neuron culture (TH positive neurons), % of control: 81.33 % of the control

B1: BDNF: brain-derived neurotrophic factor, obtained from PanBiotech, used as positive control (protein, UniProt P23560 19-247, looked up)
Neurotrophic factor BDNF …: APMKEANIRGQGGLAYPGVRTHGTLESVNGPKAGSRGLTSLADTFEHVIEELLDEDQKVRPNEENNKDADLYTSRVMLSSQVPLEPPLLFLLEEYKNYLDAANMSMRVRRHSDPARRGELSVCDSISEWVTAADKKTAVDMSGGTVTVLEKVPVSKGQLKQYFYETKCNPMGYTKEGCRGIDKRHWNSQCRTTQSYVRALTMDSKKRIGWRFIRIDTSCVCTLTIKRGR
BDNF 50 ng/mL applied 1 day before 6-OHDA intoxication (20 μM, 48 h), FIG. 1
  survival of primary dopaminergic neuron culture (TH positive neurons), % of control: 80.80 % of the control
BDNF 50 ng/mL applied 6 days before 6-OHDA intoxication (20 μM, 48 h), FIG. 2
  survival of primary dopaminergic neuron culture (TH positive neurons), % of control: 83.44 % of the control
